Measurements: patent US5300672A (priority 1992, dated 1994)
Converted amounts (≈) assume the structure as drawn.

Columns and labels:
[1] = tested on: Phytophthora infestans; test: whole plant or invertebrate; type: in vivo; conditions: Phytophthora infestans, in Solanum lycopersicum, 96 h, read-out: % Control TLB, application rate 200 ppm
[2] = tested on: Aureobasidium pullulans; test: Alternate Minimum Inhibitory Concentrations Test (Table 4), A.p; type: cell-based; conditions: Table 4 alternate test, 250 ppm to 0.8 ppm in TSB
[3] = tested on: Erysiphe graminis (f. sp. tritici); test: whole plant or invertebrate; type: in vivo; conditions: Blumeria graminis; read-out: % Control WPM
[4] = tested on: Pseudomonas aerugenosa; test: Alternate Minimum Inhibitory Concentrations Test (Table 4), Ps.ae; type: cell-based; conditions: Table 4 alternate test, 250 ppm to 0.8 ppm in TSB
[5] = tested on: Aspergillus niger; test: Alternate Minimum Inhibitory Concentrations Test (Table 4), A.n; type: cell-based; conditions: Table 4 alternate test, 250 ppm to 0.8 ppm in TSB
[6] = tested on: Pseudoperonospora cubensis; test: whole plant or invertebrate; type: in vivo; conditions: Pseudoperonospora cubensis, in Cucumis sativus, 168 h; read-out: % Control CDM
[7] = tested on: Puccinia recondita (f. sp. tritici Races PKB and PLD); test: whole plant or invertebrate; type: in vivo; conditions: Puccinia recondita, 240 h; read-out: % Control WLR
[8] = tested on: Candida albicans; test: Alternate Minimum Inhibitory Concentrations Test (Table 4), C.alb; type: cell-based; conditions: Table 4 alternate test, 250 ppm to 0.8 ppm in TSB
[9] = tested on: Staphylococcus aureus; test: Alternate Minimum Inhibitory Concentrations Test (Table 4), S.a; type: cell-based; conditions: Table 4 alternate test, 250 ppm to 0.8 ppm in TSB
[10] = tested on: Escherichia coli; test: Alternate Minimum Inhibitory Concentrations Test (Table 4), E.c; type: cell-based; conditions: Table 4 alternate test, 250 ppm to 0.8 ppm in TSB
[11] = tested on: Pseudomonas fluorescens; test: Alternate Minimum Inhibitory Concentrations Test (Table 4), Ps.fl; type: cell-based; conditions: Pseudomonas fluorescens; Table 4 alternate test; 250 ppm to 0.8 ppm in TSB, 72 hours, 30° C.; read-out: MIC Ps.fl
Outline: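 Broth microdilution MIC in TSB: compound (from acetone stock) serially diluted 1:1 from 250 ppm to 0.8 ppm, inoculated with diluted 24 h culture. After 3 days at 30 °C, the lowest concentration with no growth was recorded as MIC.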

[12] = tested on: Pythium ultimum; test: Pythium ultimum in vitro Fungitoxicity Assay in liquid culture; type: cell-based, Pythium ultimum (ATCC 26083); conditions: Globisporangium ultimum; mycelial dry weight, 48 h at 25° C., shaking at 60 rpm; read-out: EC 50
Method: Selected compounds of Examples 1-120 were subjected also to the following in vitro fungitoxicity assay against Pythium ultimum in a liquid culture, with the results as indicated in Table 6.
Pythium ultimum Fungitoxicity Assay
A dilution series of the test compound was prepared in dimethylsulfoxide, and 0.1 ml of each dilution was added to 19.9 ml of a liquid asparagine-sucrose medium (D. C. Erwin and K. Katznelson (1971), Can. J. Microbiol. 7, 15) in 9 cm diameter petri dishes to give the desired final concentrations of test compound. Plates were inoculated with mycelial plugs, 7 mm diameter, taken from the growing edge of 48 h old cultures of Pythium ultimum, (ATCC 26083), grown on potato dextrose agar. Two replicate plates were used for each treatment. The increase in mycelial dry weight was determined after growth for 48 h at 25° C. with shaking at 60 rpm. EC50 values were calculated from dose response curves.

[13] = tested on: Piricularia oryzae; test: whole plant or invertebrate; type: in vivo; conditions: Pyricularia oryzae, read-out: % Control RB, application rate 200 ppm

SMILES	pest or weed control at 200 ppm [1] [%]	MIC [2] [µg/mL]	pest or weed control at 200 ppm [3] [%]	MIC [4] [µg/mL]	MIC [5] [µg/mL]	pest or weed control at 200 ppm [6] [%]	pest or weed control at 200 ppm [7] [%]	MIC [8] [µg/mL]	MIC [9] [µg/mL]	MIC [10] [µg/mL]	MIC [11] [µg/mL]	EC50 [12] [µg/mL]	pest or weed control at 50 ppm [7] [%]	pest or weed control at 200 ppm [13] [%]
CCCCCCCCNC(=O)/C=C\SC(=O)c1ccc([N+](=O)[O-])c(OC)c1 [Compound 105, N-octyl-cis-3-[(3-methoxy-4-nitrobenzoyl)thio]acrylamide]	0	< 2	0	> 250	24 (≈ 60.8 µM)	90	0	< 2	> 250	> 250	≥ 125			
C#CCNC(=O)/C=C\SC(=O)c1ccccc1 [Compound 113, N-(2-propynyl)-cis-3-(benzoylthio)acrylamide]	0	31 (≈ 126 µM)	0	125 (≈ 510 µM)	≥ 250	50		≥ 125	63 (≈ 257 µM)	31 (≈ 126 µM)	63 (≈ 257 µM)	6.9 (≈ 28.1 µM)	25	0
